Experimental data: article PMC7162838, “Production of multiple bacteriocins, including the novel bacteriocin gassericin M, by Lactobacillus gasseri LM19, a strain isolated from human milk” (Applied Microbiology and Biotechnology, 2020)
Like-named read-outs stand apart in the source and are kept apart here.

Test system: L. bulgaricus DPC6901
Assay: Well-diffusion assay of naturally produced and synthetic peptides
Assay type: cell-based, Lactobacillus delbrueckii subsp. bulgaricus
Conditions: for antimicrobial activity of synthetic peptides: synthetic peptides resuspended in milli Q water at 1 mg/ml
[1] = fractions from HPLC fractionation I and II of L. gasseri LM19 cell extracts and supernatant, well-diffusion, Fig. 4a

Row | Sequence | antimicrobial activity of HPLC fractions containing the peptide mass [1] | antimicrobial activity of HPLC fractions containing the peptide mass | antimicrobial activity of synthetic peptides (well-diffusion, Fig. 4a)
1 | MALKTLEKHELRNVMGGNKWGNAVIGAATGATRGVSWCRGFGPWGMTACGLGGAAIGGYLGYKSN [GamX, class IIb bacteriocin peptide of L. gasseri LM19 cluster 3, purified from culture and synthesised] | low activity | – | –
2 | MIEKVSKNELSRIYGGNNVNWGSVAGSCGKGAVMGIYFGNPILGCANGAATSLVLQTASGIYKNYQKKR [Bact_2, bacteriocin peptide of L. gasseri LM19 cluster 1, identical to gassericin S peptide GasX] | – | largest zones of inhibition | highest activity
3 | MKNFNTLSFETLANIVGGRNNWAANIGGVGGATVAGWALGNAVCGPACGFVGAHYVPIAWAGVTAATGGFGKIRK [GamA, class IIb bacteriocin peptide of L. gasseri LM19 cluster 3, purified from culture and synthesised] | largest zones of inhibition | – | highest activity
4 | MKTLNEQELTQIVGGKGNKGINWANVRCASAVTIGALGGGLAGPGGMVGGFLLGSGACF [GamY, peptide of the novel two-component bacteriocin gassericin M] | – | clear activity | did not show activity
5 | MKVLNECQLQTVVGGKNWSVAKCGGTIGTNIAIGAWRGARAGSFFGQPVSVGAGALIGASAGAIGGSVQCVGWLAGGGR [Bact_1, bacteriocin peptide of L. gasseri LM19 cluster 1, identical to gassericin S peptide GasA] | – | – | lower than that from fractions containing the Bact_1 mass
6 | MRKINKEELVEITGGFNAAKCAVGTAGGAFSIARGSAAFGVPGMVIGGILGGAAGALASCK [GamM, peptide of the novel two-component bacteriocin gassericin M] | – | low activity | notable
